This is an account of results in patent US12570612B2, “Substituted nitrogen heterocyclic compound and anesthetic effect thereof” (priority 2019, dated 2026).

Entries after “also recorded” stand apart in the source; their conditions may differ.

The first series has as its system H295R cell line. Briefly: Adrenocortical function in vitro test: secretion of cortisol and corticosterone, Group A compounds. It counts as cell-based. The note with it: H295 cells.
Take `C=CC#CC(C)(C)OC(=O)c1ccnn1[C@H](C)c1ccccc1` [Compound A16]: the “Corticosterone as an indicator to determine the presence of inhibition” value (shortened to “Corticosterone as an indicator … of inhibition”) was found to be 0 and the “Cortisol as an indicator to determine the presence of inhibition” value (“Cortisol as an indicator … of inhibition” below) turned out to be 0.

As to `CO[C@H]1C[C@@H](OC(=O)c2c(F)c(F)nn2[C@H](C)c2ccccc2)C1` [Compound A94], the “Corticosterone as an indicator … of inhibition” value was determined as 0 and the “Cortisol as an indicator … of inhibition” value stood at 0.

Regarding `CCOC(=O)c1cc(F)nn1[C@H](C)c1ccccc1` [Compound A49], the “Corticosterone as an indicator … of inhibition” value is 0 and the “Cortisol as an indicator … of inhibition” value came to 0.

In the case of `C=CC1(OC(=O)c2c(F)cnn2[C@H](C)c2ccccc2)COC1` [Compound A87], the “Corticosterone as an indicator … of inhibition” value turned out to be 0 and the “Cortisol as an indicator … of inhibition” value is listed as 0.

With `C[C@H](c1ccccc1)n1nc(F)cc1C(=O)OC(C)(C)C` [Compound A57], the “Corticosterone as an indicator … of inhibition” value turned out to be 0 and the “Cortisol as an indicator … of inhibition” value is reported as 0.

For the compound `CC(=O)C1=C(OC(=O)c2ccnn2[C@H](C)c2ccccc2)CCC1` [Compound A18], the “Corticosterone as an indicator … of inhibition” value stood at 0 and the “Cortisol as an indicator … of inhibition” value is given as 0.

As to `C[C@H](c1ccccc1)n1nccc1C(=O)OCC1CC1` [Compound A3], the “Corticosterone as an indicator … of inhibition” value came to 0 and the “Cortisol as an indicator … of inhibition” value turned out to be 0.

Staying with this series, now noted: H295 cells, 0.1-10000 nM, HPLC-MS/MS; read-out: EC50 (Corticosterone).
As usually defined, the EC50 is the concentration needed to bring the measured effect to its halfway point. In the case of `C[C@H](c1ccccc1)n1nccc1C(=O)OCC1CC1` [Compound A3], the EC50 is greater than 1000 nM.

The series is the same for the next values; noted with them: H295 cells, 0.1-10000 nM, HPLC-MS/MS; read-out: EC50 (Cortisol).
In the case of `C[C@H](c1ccccc1)n1nccc1C(=O)OCC1CC1` [Compound A3], the EC50 was greater than 1000 nM.

The same series, now with this note: Homo sapiens; H295 cells, 0.1-10000 nM, HPLC-MS/MS; read-out: EC50 (Corticosterone).
Consider `C=CC#CC(C)(C)OC(=O)c1ccnn1[C@H](C)c1ccccc1` [Compound A16], for which the EC50 is greater than 100 nM.

With `CO[C@H]1C[C@@H](OC(=O)c2c(F)c(F)nn2[C@H](C)c2ccccc2)C1` [Compound A94], the EC50 is greater than 1000 nM.

`CCOC(=O)c1cc(F)nn1[C@H](C)c1ccccc1` [Compound A49]: the EC50 was greater than 100 nM.

With `C=CC1(OC(=O)c2c(F)cnn2[C@H](C)c2ccccc2)COC1` [Compound A87], the EC50 is greater than 1000 nM.

As to `C[C@H](c1ccccc1)n1nc(F)cc1C(=O)OC(C)(C)C` [Compound A57], the EC50 was greater than 100 nM.

Consider `CC(=O)C1=C(OC(=O)c2ccnn2[C@H](C)c2ccccc2)CCC1` [Compound A18], for which the EC50 was greater than 100 nM.

The same series, now with this note: Homo sapiens; H295 cells, 0.1-10000 nM, HPLC-MS/MS; read-out: EC50 (Cortisol).
In the case of `C=CC#CC(C)(C)OC(=O)c1ccnn1[C@H](C)c1ccccc1` [Compound A16], the EC50 was greater than 100 nM.

For the compound `CO[C@H]1C[C@@H](OC(=O)c2c(F)c(F)nn2[C@H](C)c2ccccc2)C1` [Compound A94], the EC50 was greater than 1000 nM.

For `CCOC(=O)c1cc(F)nn1[C@H](C)c1ccccc1` [Compound A49], the EC50 is greater than 100 nM.

Turning to `C=CC1(OC(=O)c2c(F)cnn2[C@H](C)c2ccccc2)COC1` [Compound A87], the EC50 is greater than 1000 nM.

Regarding `C[C@H](c1ccccc1)n1nc(F)cc1C(=O)OC(C)(C)C` [Compound A57], the EC50 was greater than 100 nM.

As for `CC(=O)C1=C(OC(=O)c2ccnn2[C@H](C)c2ccccc2)CCC1` [Compound A18], the EC50 is greater than 100 nM.

The next series relates to Sprague-Dawley rats. The series is described as follows: Pharmacological characteristics at equivalent doses (2ED50), Group A compounds. It counts as in vivo. Details: Sedation duration: unit not given here. To be noted: 2ED50, tail vein.
For the compound `C=CC#CC(C)(C)OC(=O)c1ccnn1[C@H](C)c1ccccc1` [Compound A16], the Onset time worked out at 0.55 ± 0.21 min and the Righting reflex duration was found to be 2.55 ± 1.54 min.

Take `CO[C@H]1C[C@@H](OC(=O)c2c(F)c(F)nn2[C@H](C)c2ccccc2)C1` [Compound A94]: the Onset time came out at 0.33 ± 0.12 min and the Righting reflex duration was 1.26 ± 0.40 min.

With `CCOC(=O)c1cc(F)nn1[C@H](C)c1ccccc1` [Compound A49], the Onset time is listed as 0.28 ± 0.04 min and the Righting reflex duration worked out at 2.69 ± 1.18 min.

On to `C=CC1(OC(=O)c2c(F)cnn2[C@H](C)c2ccccc2)COC1` [Compound A87], for which the Onset time is reported as 0.30 ± 0.12 min and the Righting reflex duration turned out to be 2.21 ± 0.24 min.

With `C[C@H](c1ccccc1)n1nc(F)cc1C(=O)OC(C)(C)C` [Compound A57], the Onset time came to 0.42 ± 0.16 min and the Righting reflex duration is reported as 1.48 ± 0.51 min.

As to `CC(=O)C1=C(OC(=O)c2ccnn2[C@H](C)c2ccccc2)CCC1` [Compound A18], the Onset time is 0.73 ± 0.10 min and the Righting reflex duration amounted to 1.19 ± 0.64 min.

Turning to `C[C@H](c1ccccc1)n1nccc1C(=O)OCC1CC1` [Compound A3], the Onset time is reported as 0.13 ± 0.04 min, the Righting reflex duration turned out to be 2.73 ± 1.08 min and the Sedation duration turned out to be 5.76 ± 0.80.

The same series, now with this note: 2ED50, tail vein, (animals affected/animals).
On to `CO[C@H]1C[C@@H](OC(=O)c2c(F)c(F)nn2[C@H](C)c2ccccc2)C1` [Compound A94], for which the “Types and incidence of adverse reactions” value was “Red and urine(8/8), Tremor(3/8), and Four limbs and rigidity(2/8), Euphoria(1/8)”.

On to `CCOC(=O)c1cc(F)nn1[C@H](C)c1ccccc1` [Compound A49], for which the “Types and incidence of adverse reactions” value is reported as “Red urine(8/8), Hindlimb; also recorded: rigidity (2/8), broken-; also recorded: winded(1/8), Tremor(3/8)”.

`C[C@H](c1ccccc1)n1nc(F)cc1C(=O)OC(C)(C)C` [Compound A57]: the “Types and incidence of adverse reactions” value is “Red and urine(7/7), GeneralTremor and (2/7), Tetany and convulsion(2/7)”.

As for `CC(=O)C1=C(OC(=O)c2ccnn2[C@H](C)c2ccccc2)CCC1` [Compound A18], the “Types and incidence of adverse reactions” value is recorded as “Red urine(8/8), Hindlimb; also recorded: rigidity(5/8)”.

On to `C[C@H](c1ccccc1)n1nccc1C(=O)OCC1CC1` [Compound A3], for which the “Types and incidence of adverse reactions” value was “Red urine(8/8), Hindlimb; also recorded: rigidity (1/8)”.

In the next series the test system is Sprague-Dawley rats. The series is described as follows: animal or person. The note with it: LORR in rats, tail vein; brackets = 95% confidence limit. As for the experimental part: Adult male Sprague-Dawley rats (250-300 g) were selected for the experiment. […] The anesthesia effects of the compounds were assessed in rats using a LORR assay and a period >30 s was considered as an indicator of general anesthesia.
The ED50 is the midpoint of the dose-response relation. Turning to `C[C@H](c1ccccc1)n1nccc1C(=O)OCC1CC1` [Compound A3], the ED50 entry is reported as “C (C indicates that the measured ED50 is in the range of 1.00-2.00 mg/kg (excluding 1.00 mg/kg, including 2.00 mg/kg))”.

The series is the same for the next values; noted with them: Rattus norvegicus.
Consider `C=CC#CC(C)(C)OC(=O)c1ccnn1[C@H](C)c1ccccc1` [Compound A16], for which the ED50 lay in the range of 2 to 6 mg/kg.

`CO[C@H]1C[C@@H](OC(=O)c2c(F)c(F)nn2[C@H](C)c2ccccc2)C1` [Compound A94] showed an ED50 of 0.5 to 1 mg/kg.

`CCOC(=O)c1cc(F)nn1[C@H](C)c1ccccc1` [Compound A49] registered an ED50 of 2 to 6 mg/kg.

On to `C=CC1(OC(=O)c2c(F)cnn2[C@H](C)c2ccccc2)COC1` [Compound A87], for which the ED50 is 0.5 to 1 mg/kg.

Compound `C[C@H](c1ccccc1)n1nc(F)cc1C(=O)OC(C)(C)C` [Compound A57] returned an ED50 of 2 to 6 mg/kg.

In turn, `CC(=O)C1=C(OC(=O)c2ccnn2[C@H](C)c2ccccc2)CCC1` [Compound A18] displayed a 50% effective dose (ED50) of 2 to 6 mg/kg.

Still in this series, the particulars now being: rats.
In turn, `C=CC#CC(C)(C)OC(=O)c1ccnn1[C@H](C)c1ccccc1` [Compound A16] came in with an Approximate therapeutic index greater than 4 and a Minimal lethal dose greater than 12 mg/kg.

`CO[C@H]1C[C@@H](OC(=O)c2c(F)c(F)nn2[C@H](C)c2ccccc2)C1` [Compound A94] yielded an Approximate therapeutic index greater than 12 and a Minimal lethal dose greater than 12 mg/kg.

`CCOC(=O)c1cc(F)nn1[C@H](C)c1ccccc1` [Compound A49]: the Approximate therapeutic index is recorded as greater than 2 and the Minimal lethal dose was greater than 9 mg/kg.

For `C=CC1(OC(=O)c2c(F)cnn2[C@H](C)c2ccccc2)COC1` [Compound A87], the Approximate therapeutic index is greater than 18 and the Minimal lethal dose was greater than 13 mg/kg.

`C[C@H](c1ccccc1)n1nc(F)cc1C(=O)OC(C)(C)C` [Compound A57] showed an Approximate therapeutic index greater than 7 and a Minimal lethal dose greater than 15 mg/kg.

In turn, `CC(=O)C1=C(OC(=O)c2ccnn2[C@H](C)c2ccccc2)CCC1` [Compound A18] showed an Approximate therapeutic index greater than 3 and a Minimal lethal dose greater than 8 mg/kg.

In turn, `C[C@H](c1ccccc1)n1nccc1C(=O)OCC1CC1` [Compound A3] returned an Approximate therapeutic index greater than 6 and a Minimal lethal dose greater than 8 mg/kg.
